Test results reported in patent US10238638B2, “Benzothiazole and benzothiophene compounds” (Bristol-Myers Squibb Company, priority 2015, dated 2019).

The molecules below were run against PAR4 (Homo sapiens (Human), UniProt Q96RI0) (assay: FLIPR assay in PAR4-expressing HEK293 cells (calcium mobilization)). Conditions: H-Ala-Phe(4-F)-Pro-Gly-Trp-Leu-Val-Lys-Asn-Gly-NH2-induced calcium mobilization, PAR4 antagonist activity.
Type: cell-based
From the text: The FLIPR assay is an exemplary in vitro assay for measuring the activity of the PAR4 antagonists of the present invention. In this assay, intracellular calcium mobilization is induced in PAR4 expressing cells by a PAR4 agonist and calcium mobilization is monitored.
HEK293 cells stably expressing PAR4 were generated by a standard method of transfection of human PAR4 (F2R23) cDNA expression vector and selected based on PAR4 protein expression or mRNA expression. […] Therefore, the same cells were also used to determine selectivity against PAR1 and agonist activity for both receptors.
FLIPR-based calcium mobilization assay in HEK293 cells was used to measure PAR4 antagonism, agonism, and selectivity against PAR1. […] Counter screens for agonist activity and PAR1 antagonist activity were also performed. Briefly, PAR1/PAR4-expressing HEK293 cells were grown in DMEM (Life Technology, Grand Island, N.Y.) containing 10% heat-inactivated FBS, 1% Penicillin-Streptomycin, 10 μg/mL blasticidin, and 100 μg/mL Zeocin at 37° C. with 5% CO2. Cells were plated overnight prior to the experiment in a black 384-well Purecoat Amine clear bottom plate (Becton Dickinson Biosciences, San Jose, Calif.) at 10,000 cells/well in 30 μL growth medium and incubated in a humidified chamber at 37° C. with 5% CO2 overnight. Prior to compound addition, the cell medium was replaced with 40 μL of 1× calcium and magnesium-containing Hank's Balanced Saline Solution (HBSS) (with 20 mM HEPES) and 1:1000 diluted fluorescent calcium indicator (Codex Biosolutions, Gaithersburg, Md.). After a 30 minute incubation period at 37° C. and a further 30 minute incubation and equilibration period at room temperature, 20 μL test compound (diluted in 1×HBSS buffer) was added at various concentrations at 0.17% dimethyl sulfoxide (DMSO) final concentration. Changes in fluorescence intensity were measured using a Functional Drug Screening System (FDSS, Hamamatsu, Japan) to determine agonist activities. The cells were then incubated for 30 minutes at room temperature followed by addition of 20 μL of agonist peptide for antagonist activity measurement. […] Compound potency was derived from 11-point concentration-response curves.

Sequence of PAR4 (Q96RI0 18-385): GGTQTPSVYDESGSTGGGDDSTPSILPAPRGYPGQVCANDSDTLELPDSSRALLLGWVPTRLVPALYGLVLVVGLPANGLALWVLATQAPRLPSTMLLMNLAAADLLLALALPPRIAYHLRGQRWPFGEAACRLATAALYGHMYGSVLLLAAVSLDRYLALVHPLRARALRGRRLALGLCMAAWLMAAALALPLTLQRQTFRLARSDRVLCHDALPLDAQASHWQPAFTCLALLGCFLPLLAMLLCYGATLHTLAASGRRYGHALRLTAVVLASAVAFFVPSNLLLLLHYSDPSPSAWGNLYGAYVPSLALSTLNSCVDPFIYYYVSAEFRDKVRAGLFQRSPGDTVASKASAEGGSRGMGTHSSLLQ

**Q.** `COc1cc(OCc2csc(-c3ccc(C(=O)N(C)[C@H]4CCOC4)cc3)n2)c2sc(-c3cn4nc(C(C)(F)F)sc4n3)nc2c1` [Example 15, (S)-4-(4-(((2-(2-(1,1-Difluoroethyl)imidazo[2,1-b][1,3,4]thiadiazol-6-yl)-5-methoxybenzo[d]thiazol-7-yl)oxy)methyl)thiazol-2-yl)-N-methyl-N-(tetrahydrofuran-3-yl)benzamide] was tested. Which IC50 did it give?
**A.** Its IC50 is 3700 nM.

**Q.** Which IC50 does the source give for `COc1cc(OCc2csc(-c3ccc(C(=O)N(CCO)C(C)(C)C)cc3)n2)c2sc(-c3cn4nc(C(C)(F)F)sc4n3)nc2c1` [Example 19, N-(tert-Butyl)-4-(4-(((2-(2-(1,1-difluoroethyl)imidazo[2,1-b][1,3,4]thiadiazol-6-yl)-5-methoxybenzo[d]thiazol-7-yl)oxy)methyl)thiazol-2-yl)-N-(2-hydroxyethyl)benzamide] here?
**A.** The IC50 was 81000 nM.

**Q.** Which IC50 does the source give for `CCc1nn2cc(-c3nc4cc(OC)cc(OCc5csc(-c6ccc(C(=O)NCC(C)(C)CO)cc6)n5)c4s3)nc2s1` [Example 32, 4-(4-(((2-(2-Ethylimidazo[2,1-b][1,3,4]thiadiazol-6-yl)-5-methoxybenzo[d]thiazol-7-yl)oxy)methyl)thiazol-2-yl)-N-(3-hydroxy-2,2-dimethylpropyl)benzamide] here?
**A.** The IC50 was 1400 nM.

**Q.** How did the IC50 turn out when `CCc1nn2cc(-c3nc4cc(OC)cc(OCc5csc(-c6ccc(C(=O)N(C)[C@H]7CCOC7)cc6)n5)c4s3)nc2s1` [Example 34, (S)-4-(4-(((2-(2-Ethylimidazo[2,1-b][1,3,4]thiadiazol-6-yl)-5-methoxybenzo[d]thiazol-7-yl)oxy)methyl)thiazol-2-yl)-N-methyl-N-(tetrahydrofuran-3-yl)benzamide] was run?
**A.** Its IC50 is 1300 nM.

**Q.** How did the IC50 turn out when `COc1cc(OCc2csc(-c3ccc(C(=O)N4CCOC[C@@H]4CO)cc3)n2)c2sc(-c3cn4nc(C)sc4n3)nc2c1` [Example 11, (S)-(3-(Hydroxymethyl)morpholino)(4-(4-(((5-methoxy-2-(2-methylimidazo[2,1-b][1,3,4]thiadiazol-6-yl)benzo[d]thiazol-7-yl)oxy)methyl)thiazol-2-yl)phenyl)methanone] was run?
**A.** Its IC50 is 1400 nM.

**Q.** How did the IC50 turn out when `CCc1nn2cc(-c3nc4cc(OC)cc(OCc5csc(-c6ccc(C(=O)N(C)C)cc6)n5)c4s3)nc2s1` [Example 35, 4-(4-(((2-(2-Ethylimidazo[2,1-b][1,3,4]thiadiazol-6-yl)-5-methoxybenzo[d]thiazol-7-yl)oxy)methyl)thiazol-2-yl)-N,N-dimethylbenzamide] was run?
**A.** The IC50 was 1200 nM.

**Q.** For `COc1cc(OCc2csc(-c3ccc(C(=O)N4CC[C@@H](CO)C4)cc3)n2)c2sc(-c3cn4nc(C)sc4n3)nc2c1` [Example 8], which IC50 is on record?
**A.** Its IC50 is 1800 nM.

**Q.** For `COc1cc(OCc2csc(-c3ccccc3)n2)c2sc(-c3cn4nc(C)ccc4n3)nc2c1` [Example 45, 5-Methoxy-2-(6-methylimidazo[1,2-b]pyridazin-2-yl)-7-((2-phenylthiazol-4-yl)methoxy)benzo[d]thiazole], which IC50 is on record?
**A.** Its IC50 is 1800 nM.

**Q.** How did the IC50 turn out when `COc1cc(OCc2csc(-c3ccc(C(=O)N4CCC[C@H](O)C4)cc3)n2)c2sc(-c3cn4nc(C)sc4n3)nc2c1` [Example 4] was run?
**A.** Its IC50 is 4200 nM.

**Q.** Which IC50 does the source give for `COc1cc(OCc2csc(-c3ccc(C(=O)N(CCO)C(C)(C)C)cc3)n2)c2sc(-c3cn4nc(C5CC5)sc4n3)nc2c1` [Example 29, N-(tert-Butyl)-4-(4-(((2-(2-cyclopropylimidazo[2,1-b][1,3,4]thiadiazol-6-yl)-5-methoxybenzo[d]thiazol-7-yl)oxy)methyl)thiazol-2-yl)-N-(2-hydroxyethyl)benzamide] here?
**A.** The IC50 was 80000 nM.

**Q.** `COc1cc(OCc2nc(-c3ccc(C(=O)NCC(C)(C)CO)cc3)sc2C)c2sc(-c3cn4nc(C)sc4n3)nc2c1` [Example 40, N-(3-Hydroxy-2,2-dimethylpropyl)-4-(4-(((5-methoxy-2-(2-methylimidazo[2,1-b][1,3,4]thiadiazol-6-yl)benzo[d]thiazol-7-yl)oxy)methyl)-5-methylthiazol-2-yl)benzamide] was tested. Which IC50 did it give?
**A.** The IC50 was 1600 nM.

**Q.** `COc1cc(OCc2nc(-c3ccc(C(=O)N4CCC[C@H](O)C4)cc3)sc2C)c2sc(-c3cn4nc(C)sc4n3)nc2c1` [Example 38, (S)-(3-Hydroxypiperidin-1-yl)(4-(4-(((5-methoxy-2-(2-methylimidazo[2,1-b][1,3,4]thiadiazol-6-yl)benzo[d]thiazol-7-yl)oxy)methyl)-5-methylthiazol-2-yl)phenyl)methanone] was tested. Which IC50 did it give?
**A.** The IC50 was 1600 nM.

**Q.** Which IC50 does the source give for `CCc1nn2cc(-c3nc4cc(OC)cc(OCc5csc(-c6ccc(C(=O)N7CCC[C@H](O)C7)cc6)n5)c4s3)nc2s1` [Example 33, (S)-(4-(4-(((2-(2-Ethylimidazo[2,1-b][1,3,4]thiadiazol-6-yl)-5-methoxybenzo[d]thiazol-7-yl)oxy)methyl)thiazol-2-yl)phenyl)(3-hydroxypiperidin-1-yl)methanone] here?
**A.** Its IC50 is 3600 nM.

**Q.** For `COc1cc(OCc2csc(-c3ccc(C(=O)N4CCOC[C@H]4CO)cc3)n2)c2sc(-c3cn4nc(C(C)(F)F)sc4n3)nc2c1` [Example 21, (R)-(4-(4-(((2-(2-(1,1-Difluoroethyl)imidazo[2,1-b][1,3,4]thiadiazol-6-yl)-5-methoxybenzo[d]thiazol-7-yl)oxy)methyl)thiazol-2-yl)phenyl)(3-(hydroxymethyl)morpholino)methanone], which IC50 is on record?
**A.** The IC50 was 920 nM.

**Q.** With `COc1cc(OCc2csc(-c3ccc(C(=O)N(C)CC#N)cc3)n2)c2sc(-c3cn4nc(C)sc4n3)nc2c1` [Example 5, N—(Cyanomethyl)-4-(4-(((5-methoxy-2-(2-methylimidazo[2,1-b][1,3,4]thiadiazol-6-yl)benzo[d]thiazol-7-yl)oxy)methyl)thiazol-2-yl)-N-methylbenzamide] as the molecule, how does the IC50 read?
**A.** Its IC50 is 1100 nM.

**Q.** With `COc1cc(OCc2csc(-c3ccc(C(=O)N(C)C)cc3)n2)c2sc(-c3cn4nc(C)ccc4n3)nc2c1` [Example 44, 4-(4-(((5-Methoxy-2-(6-methylimidazo[1,2-b]pyridazin-2-yl)benzo[d]thiazol-7-yl)oxy)methyl)thiazol-2-yl)-N,N-dimethylbenzamide] as the molecule, how does the IC50 read?
**A.** The IC50 was 2600 nM.

**Q.** For `COc1cc(OCc2csc(-c3ccc(C(=O)N(C)C)cc3)n2)c2sc(-c3cn4nc(C5CC5)sc4n3)nc2c1` [Example 28, 4-(4-(((2-(2-Cyclopropylimidazo[2,1-b][1,3,4]thiadiazol-6-yl)-5-methoxybenzo[d]thiazol-7-yl)oxy)methyl)thiazol-2-yl)-N,N-dimethylbenzamide], which IC50 is on record?
**A.** Its IC50 is 3700 nM.

**Q.** How did the IC50 turn out when `COc1cc(OCc2csc(-c3ccc(C(=O)N4CCC(C)(CO)CC4)cc3)n2)c2sc(-c3cn4nc(C)sc4n3)nc2c1` [Example 67] was run?
**A.** The IC50 was 930 nM.

**Q.** How did the IC50 turn out when `COc1cc(OCc2csc(-c3ccc(C(=O)N(C)CC#N)cc3)n2)c2sc(-c3cn4nc(C(C)(F)F)sc4n3)nc2c1` [Example 17, N—(Cyanomethyl)-4-(4-(((2-(2-(1,1-difluoroethyl)imidazo[2,1-b][1,3,4]thiadiazol-6-yl)-5-methoxybenzo[d]thiazol-7-yl)oxy)methyl)thiazol-2-yl)-N-methylbenzamide] was run?
**A.** Its IC50 is 2600 nM.

**Q.** Which IC50 does the source give for `COc1cc(OCc2csc(N3CCOCC3)n2)c2sc(-c3cn4nc(C)ccc4n3)nc2c1` [Example 46, 4-(4-(((5-Methoxy-2-(6-methylimidazo[1,2-b]pyridazin-2-yl)benzo[d]thiazol-7-yl)oxy)methyl)thiazol-2-yl)morpholine] here?
**A.** Its IC50 is 2500 nM.

**Q.** For `COc1cc(OCc2csc(-c3ccc(C(=O)N(C)C4CCOCC4)cc3)n2)c2sc(-c3cn4nc(C(C)(F)F)sc4n3)nc2c1` [Example 22, 4-(4-(((2-(2-(1,1-Difluoroethyl)imidazo[2,1-b][1,3,4]thiadiazol-6-yl)-5-methoxybenzo[d]thiazol-7-yl)oxy)methyl)thiazol-2-yl)-N-methyl-N-(tetrahydro-2H-pyran-4-yl)benzamide], which IC50 is on record?
**A.** The IC50 was 760 nM.

**Q.** With `COc1cc(OCc2csc(-c3ccc(C(=O)N(C)[C@H]4CCOC4)cc3)n2)c2sc(-c3cn4nc(C)sc4n3)nc2c1` [Example 3, (S)-4-(4-(((5-methoxy-2-(2-methylimidazo[2,1-b][1,3,4]thiadiazol-6-yl)benzo[d]thiazol-7-yl)oxy)methyl)thiazol-2-yl)-N-methyl-N-(tetrahydrofuran-3-yl)benzamide] as the molecule, how does the IC50 read?
**A.** Its IC50 is 3600 nM.

**Q.** Which IC50 does the source give for `COc1cc(OCc2csc(-c3ccc(C(=O)OC(C)(C)C)cc3)n2)c2sc(-c3cn4nc(C)sc4n3)nc2c1` [Example 1, tert-Butyl 4-(4-(((5-methoxy-2-(2-methylimidazo[2,1-b][1,3,4]thiadiazol-6-yl)benzo[d]thiazol-7-yl)oxy)methyl)thiazol-2-yl)benzoate] here?
**A.** The IC50 was 2400 nM.

**Q.** With `COc1cc(OCc2nc(-c3ccc(C(=O)N(C)C)cc3)sc2C)c2sc(-c3cn4nc(C)sc4n3)nc2c1` [Example 41, 4-(4-(((5-Methoxy-2-(2-methylimidazo[2,1-b][1,3,4]thiadiazol-6-yl)benzo[d]thiazol-7-yl)oxy)methyl)-5-methylthiazol-2-yl)-N,N-dimethylbenzamide] as the molecule, how does the IC50 read?
**A.** Its IC50 is 1700 nM.
